One compound from patent publication US20200260700A1, “Transgenic Insect and Use of Same in Methods for Testing Natural or Synthetic Substances” (Robert Bosch Gesellschaft für Medizinische Forschung mbH, priority 2017, published 2020) can be followed below.

The target of the assay is human SLC22A1/OCT1 protein (Homo sapiens, UniProt O15245). The following applies: ethidium bromide and cimetidine simultaneously injected into ventral side of Drosophila melanogaster embryos expressing OCT1/SLC22A1 reference sequence in salivary glands (GAL4/UAS); confocal laser scanning microscopy.
human SLC22A1/OCT1 protein, sequence (O15245 whole entry, the tested form may be a part): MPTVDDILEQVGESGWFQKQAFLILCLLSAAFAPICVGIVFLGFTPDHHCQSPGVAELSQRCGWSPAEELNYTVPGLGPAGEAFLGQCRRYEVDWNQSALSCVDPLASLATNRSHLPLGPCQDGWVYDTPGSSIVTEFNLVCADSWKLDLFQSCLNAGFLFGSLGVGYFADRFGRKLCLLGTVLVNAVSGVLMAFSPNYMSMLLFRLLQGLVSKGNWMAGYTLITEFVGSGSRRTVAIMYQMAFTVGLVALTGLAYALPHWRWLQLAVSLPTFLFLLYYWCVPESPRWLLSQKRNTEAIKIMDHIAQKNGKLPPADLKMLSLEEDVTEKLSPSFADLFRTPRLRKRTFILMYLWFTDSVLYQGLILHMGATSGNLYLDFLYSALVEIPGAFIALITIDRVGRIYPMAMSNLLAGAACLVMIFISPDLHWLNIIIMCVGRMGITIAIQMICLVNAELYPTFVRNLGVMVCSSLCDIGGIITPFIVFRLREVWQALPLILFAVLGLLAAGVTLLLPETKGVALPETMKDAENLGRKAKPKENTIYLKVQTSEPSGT

Experimental: The salivary glands are moreover characterized by the tissue-specific expression of GFP. These living embryos were injected with 0.5 μM ethidium bromide. The accumulation of ethidium bromide in the salivary glands was visualized by confocal laser scanning microscopy.
The salivary glands are moreover characterized by the tissue-specific expression of GFP. Ethidium bromide and cimetidine were simultaneously injected into the ventral side of the embryos.

As to `CN/C(=N/CCSCc1nc[nH]c1C)NC#N` [cimetidine], the “inhibition of the uptake of ethidium bromide” value is “concentration-dependent”.
